How the values were obtained:
[1] = Antitumor activity against Mus musculus (mouse) DLA cells transplanted in Swiss albino mouse assessed as decrease in packed cell volume at 50 mg/kg, ip qd administered 24 hr post tumor transplantation for 14 days measured on day 14 (reference value: 30.55 +/- 3.52%); assay type: functional; set-up: scale not given: the % may be the effect or the level left; details: route intraperitoneal
[2] = Antitumor activity against Mus musculus (mouse) DLA cells transplanted in Swiss albino mouse assessed as increase in haemoglobin level at 50 mg/kg, ip qd administered 24 hr post tumor transplantation for 14 days measured on day 14 (reference value: 7.12 +/- 0.95 g/dl); assay type: functional; details: route intraperitoneal
[3] = Antitumor activity against Mus musculus (mouse) DLA cells transplanted in Swiss albino mouse assessed as decrease in body weight at 50 mg/kg, ip qd administered 24 hr post tumor transplantation for 14 days measured on day 14 (reference value: 7.6 +/- 0.94 g); assay type: functional; details: route intraperitoneal
[4] = Antitumor activity against Mus musculus (mouse) DLA cells transplanted in Swiss albino mouse assessed as decrease in triglyceride level at 50 mg/kg, ip qd administered 24 hr post tumor transplantation for 14 days measured on day 14 (reference value: 210.12 +/- 4.65 mg/dl); assay type: functional; details: route intraperitoneal
Mus musculus = assay: Acute toxicity in ip dosed albino Mus musculus (mouse) after 24 hr; assay type: organism-based; details: in vivo
[5] = Antitumor activity against Mus musculus (mouse) DLA cells transplanted in Swiss albino mouse assessed as decrease in alanine amino transferase level at 50 mg/kg, ip qd administered 24 hr post tumor transplantation for 14 days measured on day 14 (reference value: 61.2 +/- 2.6 U/L); assay type: functional; details: route intraperitoneal
[6] = Antitumor activity against Mus musculus (mouse) DLA cells transplanted in Swiss albino mouse assessed as increase in RBC count at 50 mg/kg, ip qd administered 24 hr post tumor transplantation for 14 days measured on day 14 (reference value: 2.46 +/- 0.45 million/mm3); assay type: functional; details: route intraperitoneal
[7] = Antitumor activity against Mus musculus (mouse) DLA cells transplanted in Swiss albino mouse assessed as decrease in alkaline phosphatase level at 50 mg/kg, ip qd administered 24 hr post tumor transplantation for 14 days measured on day 14 (reference value: 242.22 +/- 4.3 U/L); assay type: functional; details: route intraperitoneal
[8] = Antitumor activity against Mus musculus (mouse) DLA cells transplanted in Swiss albino mouse assessed as increase in life span at 50 mg/kg, ip qd administered 24 hr post tumor transplantation for 14 days measured on day 14 (reference value: 50%); assay type: functional; details: route intraperitoneal
[9] = Antitumor activity against Mus musculus (mouse) DLA cells transplanted in Swiss albino mouse assessed as decrease in total WBC count measured 10^3 cells at 50 mg/kg, ip qd administered 24 hr post tumor transplantation for 14 days measured on day 14 (reference value: 14.40 +/- 2.5 ml); assay type: functional; set-up: unit not given here; details: route intraperitoneal
[10] = Antitumor activity against Mus musculus (mouse) DLA cells transplanted in Swiss albino mouse assessed as increase in platelet count at 50 mg/kg, ip qd administered 24 hr post tumor transplantation for 14 days measured on day 14 (reference value: 1.6 +/- 0.52 lakhs/mm3); assay type: functional; details: route intraperitoneal
[11] = Antitumor activity against Mus musculus (mouse) DLA cells transplanted in Swiss albino mouse assessed as decrease in cholesterol level at 50 mg/kg, ip qd administered 24 hr post tumor transplantation for 14 days measured on day 14 (reference value: 140.86 +/- 4.6 mg/dl); assay type: functional; details: route intraperitoneal
[12] = Antitumor activity against Mus musculus (mouse) DLA cells transplanted in Swiss albino mouse assessed as decrease in cancer cell count measured 10^6 cells at 50 mg/kg, ip qd administered 24 hr post tumor transplantation for 14 days measured on day 14 (reference value: 2.76 +/- 0.33 ml); assay type: functional, Cancer cell lines; details: route intraperitoneal
[13] = Antitumor activity against Mus musculus (mouse) DLA cells transplanted in Swiss albino mouse assessed as decrease in aspartate amino transferase level at 50 mg/kg, ip qd administered 24 hr post tumor transplantation for 14 days measured on day 14 (reference value: 85.6 +/- 2.72 U/L); assay type: functional; details: route intraperitoneal
[14] = Antitumor activity against Mus musculus (mouse) DLA cells transplanted in Swiss albino mouse assessed as decrease in body weight at 20 mg/kg, ip qd administered 24 hr post tumor transplantation for 14 days measured on day 14 (reference value: 7.6 +/- 0.94 g); assay type: functional; details: route intraperitoneal
[15] = Antitumor activity against Mus musculus (mouse) DLA cells transplanted in Swiss albino mouse assessed as decrease in aspartate amino transferase level at 20 mg/kg, ip qd administered 24 hr post tumor transplantation for 14 days measured on day 14 (reference value: 85.6 +/- 2.72 U/L); assay type: functional; details: route intraperitoneal
[16] = Antitumor activity against Mus musculus (mouse) DLA cells transplanted in Swiss albino mouse assessed as decrease in alkaline phosphatase level at 20 mg/kg, ip qd administered 24 hr post tumor transplantation for 14 days measured on day 14 (reference value: 242.22 +/- 4.3 U/L); assay type: functional; details: route intraperitoneal
[17] = Antitumor activity against Mus musculus (mouse) DLA cells transplanted in Swiss albino mouse assessed as increase in RBC count at 20 mg/kg, ip qd administered 24 hr post tumor transplantation for 14 days measured on day 14 (reference value: 2.46 +/- 0.45 million/mm3); assay type: functional; details: route intraperitoneal
[18] = Antitumor activity against Mus musculus (mouse) DLA cells transplanted in Swiss albino mouse assessed as decrease in cholesterol level at 20 mg/kg, ip qd administered 24 hr post tumor transplantation for 14 days measured on day 14 (reference value: 140.86 +/- 4.6 mg/dl); assay type: functional; details: route intraperitoneal
[19] = Antitumor activity against Mus musculus (mouse) DLA cells transplanted in Swiss albino mouse assessed as decrease in packed cell volume at 20 mg/kg, ip qd administered 24 hr post tumor transplantation for 14 days measured on day 14 (reference value: 30.55 +/- 3.52%); assay type: functional; set-up: scale not given: the % may be the effect or the level left; details: route intraperitoneal
[20] = Antitumor activity against Mus musculus (mouse) DLA cells transplanted in Swiss albino mouse assessed as increase in life span at 20 mg/kg, ip qd administered 24 hr post tumor transplantation for 14 days measured on day 14 (reference value: 50%); assay type: functional; details: route intraperitoneal
[21] = Antitumor activity against Mus musculus (mouse) DLA cells transplanted in Swiss albino mouse assessed as decrease in alanine amino transferase level at 20 mg/kg, ip qd administered 24 hr post tumor transplantation for 14 days measured on day 14 (reference value: 61.2 +/- 2.6 U/L); assay type: functional; details: route intraperitoneal
[22] = Antitumor activity against Mus musculus (mouse) DLA cells transplanted in Swiss albino mouse assessed as increase in platelet count at 20 mg/kg, ip qd administered 24 hr post tumor transplantation for 14 days measured on day 14 (reference value: 1.6 +/- 0.52 lakhs/mm3); assay type: functional; details: route intraperitoneal
[23] = Antitumor activity against Mus musculus (mouse) DLA cells transplanted in Swiss albino mouse assessed as decrease in triglyceride level at 20 mg/kg, ip qd administered 24 hr post tumor transplantation for 14 days measured on day 14 (reference value: 210.12 +/- 4.65 mg/dl); assay type: functional; details: route intraperitoneal
[24] = Antitumor activity against Mus musculus (mouse) DLA cells transplanted in Swiss albino mouse assessed as increase in haemoglobin level at 20 mg/kg, ip qd administered 24 hr post tumor transplantation for 14 days measured on day 14 (reference value: 7.12 +/- 0.95 g/dl); assay type: functional; details: route intraperitoneal
[25] = Antitumor activity against Mus musculus (mouse) DLA cells transplanted in Swiss albino mouse assessed as decrease in total WBC count measured 10^3 cells at 20 mg/kg, ip qd administered 24 hr post tumor transplantation for 14 days measured on day 14 (reference value: 14.40 +/- 2.5 ml); assay type: functional; details: route intraperitoneal
[26] = Antitumor activity against Mus musculus (mouse) DLA cells transplanted in Swiss albino mouse assessed as decrease in cancer cell count measured 10^6 cells at 20 mg/kg, ip qd administered 24 hr post tumor transplantation for 14 days measured on day 14 (reference value: 2.76 +/- 0.33 ml); assay type: functional, Cancer cell lines; details: route intraperitoneal

Row | Structure (SMILES) | Activity [1] | Activity [2] | Activity [3] | Activity [4] | ED50 (Mus musculus) | Activity [5] | Activity [6] | Activity [7] | Activity [8] | Activity [9] | Activity [10] | Activity [11] | Activity [12] | Activity [13] | also measured
1 | CN(C)c1ccc(/C=C/C(=C2C(=O)NC(=O)NC2=O)c2nc3ccccc3[nH]2)cc1 | 22.42% | 10.42 g/dL | 5.9 g | 172.4 mg/dL | 50 mg/kg | 51.45 U/L | 3.25 million/mm3 | 210.21 U/L | 74% | 12.5 | 2.22 ×10⁵ /mm3 | 124.3 mg/dL | 1.9 mL | 73.4 U/L | –
2 | O=C1NC(=O)C(=C(/C=C/c2cccc([N+](=O)[O-])c2)c2nc3ccccc3[nH]2)C(=O)N1 | 20.48% | 10.5 g/dL | 5.88 g | 168.7 mg/dL | 50 mg/kg | 53.42 U/L | 3.3 million/mm3 | 202.85 U/L | 76% | 12.45 | 2.3 ×10⁵ /mm3 | 122.3 mg/dL | 1.88 mL | 72.6 U/L | –
3 | O=C1NC(=O)C(=C(/C=C/c2ccccc2O)c2nc3ccccc3[nH]2)C(=O)N1 | 23.68% | 10.1 g/dL | 5.43 g | 178.7 mg/dL | 50 mg/kg | 56.42 U/L | 2.8 million/mm3 | 229.15 U/L | 69% | 13.45 | 2.05 ×10⁵ /mm3 | 131.3 mg/dL | 2.03 mL | 75.4 U/L | –
4 | O=C1NC(=O)C(=C(/C=C/c2ccccc2)c2nc3ccccc3[nH]2)C(=O)N1 | 24.1% | 9.3 g/dL | 6.45 g | 186.85 mg/dL | 50 mg/kg | 57.3 U/L | 2.9 million/mm3 | 232.32 U/L | 66% | 13.8 | 1.99 ×10⁵ /mm3 | 136.45 mg/dL | 2.26 mL | 77.6 U/L | –
5 | O=C1NC(=O)C(=C(/C=C/c2ccc(Cl)cc2)c2nc3ccccc3[nH]2)C(=O)N1 | 23.1% | 10.3 g/dL | 6.6 g | 182.5 mg/dL | 50 mg/kg | 55.6 U/L | 3.1 million/mm3 | 223.36 U/L | 70% | 12.7 | 2.1 ×10⁵ /mm3 | 129.32 mg/dL | 2.12 mL | 76.52 U/L | –
6 | COc1ccc(/C=C/C(=C2C(=O)NC(=O)NC2=O)c2nc3ccccc3[nH]2)cc1 | 22.9% | 10.28 g/dL | 6.3 g | 170.6 mg/dL | 50 mg/kg | 53.52 U/L | 3.15 million/mm3 | 218.26 U/L | 72% | 12.55 | 2.12 ×10⁵ /mm3 | 126.35 mg/dL | 1.96 mL | 75.62 U/L | –
7 | O=c1[nH]cc(F)c(=O)[nH]1 [FLUOROURACIL] | – | – | – | – | – | – | – | – | – | – | – | – | – | – | Activity [14]: 3.7 g; Activity [15]: 56.3 U/L; Activity [16]: 162.3 U/L; Activity [17]: 4.1 million/mm3; Activity [18]: 112.52 mg/dL; Activity [19]: 17.45%; Activity [20]: 94%; Activity [21]: 42.45 U/L; Activity [22]: 2.65 ×10⁵ /mm3; Activity [23]: 156.42 mg/dL; Activity [24]: 11.5 g/dL; Activity [25]: 11.3 mL; Activity [26]: 1.3 mL

Reference: ChEMBL document CHEMBL3045992, “Antitumour activity of 5-[(2E)-1-(1H-benzimidazol-2-yl)-3-substituted phenylprop-2-en-1-ylidene] pyrimidine-2,4,6(1H,3H,5H)-triones against Daltons ascitic lymphoma in mice” (Med Chem Res, 2013)
